Measured values reported in ChEMBL document CHEMBL1141677, “Synthesis and structure-antibacterial activity of triazolyl oxazolidinones containing long chain acyl moiety” (2008).
Converted amounts (≈) assume the structure as drawn.

Tests used:
Type in all cases: functional
Staphylococcus [1] = experiment: Antibacterial activity against methicillin-resistant coagulase-negative Staphylococcus clinical isolate after 18 hrs by agar dilution method
Staphylococcus [2] = experiment: Antibacterial activity against methicillin-susceptible coagulase-negative Staphylococcus clinical isolate after 18 hrs by agar dilution method
Staphylococcus aureus [3] = experiment: Antibacterial activity against methicillin-resistant Staphylococcus aureus clinical isolate after 18 hrs by agar dilution method; conditions: for MIC: Staphylococcus aureus, 18 h
Staphylococcus aureus [4] = experiment: Antibacterial activity against methicillin-susceptible Staphylococcus aureus clinical isolate after 18 hrs by agar dilution method
Staphylococcus aureus [5] = experiment: Antibacterial activity against Staphylococcus aureus ATCC 25923 after 18 hrs by agar dilution method in presence of 50% human plasma; conditions: ATCC 25923, Plasma
Staphylococcus aureus [6] = experiment: Antibacterial activity against Staphylococcus aureus ATCC 25923 after 18 hrs by agar dilution method; conditions: for MIC: Staphylococcus aureus, ATCC 25923, 18 h
Moraxella catarrhalis = experiment: Antibacterial activity against Moraxella catarrhalis clinical isolate after 18 hrs by agar dilution method
Haemophilus influenzae = experiment: Antibacterial activity against Haemophilus influenzae clinical isolate after 18 hrs by agar dilution method
Enterococcus [7] = experiment: Antibacterial activity against vancomycin-resistant Enterococcus after 18 hrs by agar dilution method
Enterococcus [8] = experiment: Antibacterial activity against vancomycin-sensitive Enterococcus after 18 hrs by agar dilution method
Streptococcus pneumoniae = experiment: Antibacterial activity against penicillin-resistant Streptococcus pneumoniae after 18 hrs by agar dilution method
Escherichia coli = experiment: Antibacterial activity against Escherichia coli ATCC 25922 after 18 hrs by agar dilution method; conditions: ATCC 25922, 18 h

| Structure (SMILES) | MIC (Staphylococcus [1]) [µg/mL] | MIC (Staphylococcus [2]) [µg/mL] | -logMIC (Staphylococcus aureus [3]) | MIC (Staphylococcus aureus [3]) [µg/mL] | MIC (Staphylococcus aureus [4]) [µg/mL] | MIC (Staphylococcus aureus [5]) [µg/mL] | -logMIC (Staphylococcus aureus [6]) | MIC (Staphylococcus aureus [6]) [µg/mL] | MIC (Moraxella catarrhalis) [µg/mL] | MIC (Haemophilus influenzae) [µg/mL] | MIC (Enterococcus [7]) [µg/mL] | MIC (Enterococcus [8]) [µg/mL] | MIC (Streptococcus pneumoniae) [µg/mL] | MIC (Escherichia coli) [µg/mL] |
| --- | --- | --- | --- | --- | --- | --- | --- | --- | --- | --- | --- | --- | --- | --- |
| O=C(C1CCCCC1)N1CCN(c2ccc(N3C[C@H](Cn4ccnn4)OC3=O)cc2F)CC1 | 1 (≈ 2.19 µM) | 1 (≈ 2.19 µM) | 2.66 | 1 (≈ 2.19 µM) | 1 (≈ 2.19 µM) | 4 | 2.06 | 4 (≈ 8.76 µM) | ≥ 8 | ≥ 8 | 1 (≈ 2.19 µM) | 1 (≈ 2.19 µM) | 0.5 (≈ 1.1 µM) | ≥ 8 |
| O=C(C1CCCC1)N1CCN(c2ccc(N3C[C@H](Cn4ccnn4)OC3=O)cc2F)CC1 | 1 (≈ 2.26 µM) | 1 (≈ 2.26 µM) | 2.65 | 1 (≈ 2.26 µM) | 1 (≈ 2.26 µM) | 4 | 2.34 | 2 (≈ 4.52 µM) | ≥ 8 | ≥ 8 | 1 (≈ 2.26 µM) | 1 (≈ 2.26 µM) | 1 (≈ 2.26 µM) | ≥ 8 |
| O=C1O[C@@H](Cn2ccnn2)CN1c1ccc(N2CCOCC2)c(F)c1 | 0.5 (≈ 1.44 µM) | 0.5 (≈ 1.44 µM) | – | 0.5 (≈ 1.44 µM) | 0.5 (≈ 1.44 µM) | 1 | – | 1 (≈ 2.88 µM) | ≥ 8 | ≥ 8 | 1 (≈ 2.88 µM) | 0.5 (≈ 1.44 µM) | 0.5 (≈ 1.44 µM) | ≥ 8 |
| CCCCCCCC(=O)N1CCN(c2ccc(N3C[C@H](Cn4ccnn4)OC3=O)cc2F)CC1 | 2 (≈ 4.23 µM) | 2 (≈ 4.23 µM) | 2.37 | 2 (≈ 4.23 µM) | 4 (≈ 8.46 µM) | > 16 | 2.07 | 8 (≈ 16.9 µM) | ≥ 8 | ≥ 8 | 4 (≈ 8.46 µM) | 4 (≈ 8.46 µM) | > 16 | ≥ 8 |
| CCCCCCCCCCCCCC(=O)N1CCN(c2ccc(N3C[C@H](Cn4ccnn4)OC3=O)cc2F)CC1 | – | > 16 | – | – | > 16 | > 16 | 1.54 | > 16 | ≥ 8 | ≥ 8 | – | > 16 | > 16 | ≥ 8 |
| CCCCCCCCCCC(=O)N1CCN(c2ccc(N3C[C@H](Cn4ccnn4)OC3=O)cc2F)CC1 | – | > 16 | – | – | > 16 | > 16 | 1.51 | > 16 | ≥ 8 | ≥ 8 | – | > 16 | > 16 | ≥ 8 |
| CC(C)C(=O)N1CCN(c2ccc(N3C[C@H](Cn4ccnn4)OC3=O)cc2F)CC1 | 1 (≈ 2.4 µM) | 1 (≈ 2.4 µM) | 2.62 | 1 (≈ 2.4 µM) | 1 (≈ 2.4 µM) | 2 | 2.32 | 2 (≈ 4.8 µM) | ≥ 8 | ≥ 8 | 1 (≈ 2.4 µM) | 1 (≈ 2.4 µM) | 0.5 (≈ 1.2 µM) | ≥ 8 |
| CCCCCCC(=O)N1CCN(c2ccc(N3C[C@H](Cn4ccnn4)OC3=O)cc2F)CC1 | 2 (≈ 4.36 µM) | 1 (≈ 2.18 µM) | 2.36 | 2 (≈ 4.36 µM) | 2 (≈ 4.36 µM) | > 16 | 2.06 | 4 (≈ 8.72 µM) | ≥ 8 | ≥ 8 | 4 (≈ 8.72 µM) | 4 (≈ 8.72 µM) | 4 (≈ 8.72 µM) | ≥ 8 |
| CCCCCCCCC(=O)N1CCN(c2ccc(N3C[C@H](Cn4ccnn4)OC3=O)cc2F)CC1 | 4 (≈ 8.22 µM) | 4 (≈ 8.22 µM) | 2.09 | 4 (≈ 8.22 µM) | 8 (≈ 16.4 µM) | > 16 | 1.78 | > 16 | ≥ 8 | ≥ 8 | 8 (≈ 16.4 µM) | 8 (≈ 16.4 µM) | > 16 | ≥ 8 |
| CCCCCCCCCCCCCCCCCC(=O)N1CCN(c2ccc(N3C[C@H](Cn4ccnn4)OC3=O)cc2F)CC1 | – | > 16 | – | – | > 16 | > 16 | 1.58 | > 16 | ≥ 8 | ≥ 8 | – | > 16 | > 16 | ≥ 8 |
| CCCCCC(=O)N1CCN(c2ccc(N3C[C@H](Cn4ccnn4)OC3=O)cc2F)CC1 | 1 (≈ 2.25 µM) | 1 (≈ 2.25 µM) | 2.35 | 2 (≈ 4.5 µM) | 4 (≈ 9 µM) | > 16 | 2.05 | 4 (≈ 9 µM) | ≥ 8 | ≥ 8 | 4 (≈ 9 µM) | 4 (≈ 9 µM) | 2 (≈ 4.5 µM) | ≥ 8 |
| CC(=O)N1CCN(c2ccc(N3C[C@H](Cn4ccnn4)OC3=O)cc2F)CC1 | 0.25 (≈ 0.644 µM) | 0.25 (≈ 0.644 µM) | 3.19 | 0.25 (≈ 0.644 µM) | 0.5 (≈ 1.29 µM) | 1 | 2.59 | 1 (≈ 2.57 µM) | ≥ 8 | ≥ 8 | 0.25 (≈ 0.644 µM) | 0.5 (≈ 1.29 µM) | 0.5 (≈ 1.29 µM) | ≥ 8 |
| CCCCCCCCCC(=O)N1CCN(c2ccc(N3C[C@H](Cn4ccnn4)OC3=O)cc2F)CC1 | – | > 16 | – | – | > 16 | > 16 | 1.5 | > 16 | ≥ 8 | ≥ 8 | – | > 16 | > 16 | ≥ 8 |
| O=C(CC1CC2CCC1C2)N1CCN(c2ccc(N3C[C@H](Cn4ccnn4)OC3=O)cc2F)CC1 (some centres undefined) | 2 (≈ 4.14 µM) | 2 (≈ 4.14 µM) | 2.38 | 2 (≈ 4.14 µM) | 2 (≈ 4.14 µM) | > 16 | 2.08 | 4 (≈ 8.29 µM) | ≥ 8 | ≥ 8 | 4 (≈ 8.29 µM) | 2 (≈ 4.14 µM) | 4 (≈ 8.29 µM) | ≥ 8 |
| CN[C@H](CC(C)C)C(=O)N[C@H]1C(=O)N[C@@H](CC(N)=O)C(=O)N[C@H]2C(=O)N[C@H]3C(=O)N[C@H](C(=O)N[C@H](C(=O)O)c4cc(O)cc(O)c4-c4cc3ccc4O)[C@H](O)c3ccc(c(Cl)c3)Oc3cc2cc(c3O[C@@H]2O[C@H](CO)[C@@H](O)[C@H](O)[C@H]2O[C@H]2C[C@](C)(N)[C@H](O)[C@H](C)O2)Oc2ccc(cc2Cl)[C@H]1O [VANCOMYCIN] | 1 (≈ 0.69 µM) | 1 (≈ 0.69 µM) | – | – | – | – | – | – | ≥ 8 | ≥ 8 | > 64 | 0.25 (≈ 0.173 µM) | 0.5 (≈ 0.345 µM) | ≥ 8 |
| CC(=O)NC[C@H]1CN(c2ccc(N3CCOCC3)c(F)c2)C(=O)O1 [LINEZOLID] | 1 (≈ 2.96 µM) | 0.25 (≈ 0.741 µM) | – | 0.5 (≈ 1.48 µM) | 1 (≈ 2.96 µM) | – | – | – | ≥ 8 | ≥ 8 | 2 (≈ 5.93 µM) | 0.5 (≈ 1.48 µM) | – | ≥ 8 |
| CCCCCCCCCCCCCCCC(=O)N1CCN(c2ccc(N3C[C@H](Cn4ccnn4)OC3=O)cc2F)CC1 | – | > 16 | – | – | > 16 | > 16 | 1.56 | > 16 | ≥ 8 | ≥ 8 | – | > 16 | > 16 | ≥ 8 |
| CCC(=O)N1CCN(c2ccc(N3C[C@H](Cn4ccnn4)OC3=O)cc2F)CC1 | 1 (≈ 2.48 µM) | 0.12 (≈ 0.298 µM) | 2.6 | 1 (≈ 2.48 µM) | 1 (≈ 2.48 µM) | 1 | 2.6 | 1 (≈ 2.48 µM) | ≥ 8 | ≥ 8 | 1 (≈ 2.48 µM) | 0.5 (≈ 1.24 µM) | 1 (≈ 2.48 µM) | ≥ 8 |
